Laboratory results published in publication PMC5108032, “Discovery of a Quinoline-4-carboxamide Derivative with a Novel Mechanism of Action, Multistage Antimalarial Activity, and Potent in Vivo Efficacy” (Journal of Medicinal Chemistry, 2016).
Values joined by “and” are separate entries in the source; they are usually repeats but may differ in a detail not shown here. Identical values can stand only once. Like-named read-outs stand apart in the source and are kept apart here. Marks after values point to notes of the source that are not given here. Each block holds one compound with its values, some of them ahead of it.

Experiments:
[1] = Mammalian cell growth inhibition counter-screen (resazurin); format: cell-based, human; settings: human, MRC-5 cells (normal diploid human fibroblasts)
Description: (§1) Plasmodium falciparum screening
(§2) Assays against P. falciparum were conducted as previously described.1 Cultures of the widely-used malaria reference strain of chloroquine-sensitive Plasmodium falciparum strain 3D7 were maintained in a 5% suspension of human red blood cells (obtained from East of Scotland Blood Transfusion Service, Ninewells Hospital, Dundee) cultured in RPMI 1640 medium (pH 7.3) supplemented with 0.5% Albumax II (Gibco Life Technologies, San Diego, CA), 12 mM sodium bicarbonate, 0.2 mM hypoxanthine and 20 mg/L gentamicin at 37°C, in a humidified atmosphere of 1% O 2, 3% CO2 with a balance of nitrogen. Growth inhibition was quantified using a fluorescence assay utilising the binding of SYBR green to double stranded DNA, which emits a fluorescent signal at 528 nm after excitation at 485nm.2 Mefloquine (potency range 30-60 nM) was used as a drug control to monitor the quality of the assay (Z’ = 0.6 to 0.8, Signal to background >3, where Z’ is a measure of the discrimination between the positive and negative controls on a screen plate). A 96-well [3H]-Hypoxanthine incorporation assay was also developed as a secondary assay in order to validate compounds from the initial screen in an orthogonal platform.3 Compound bioactivity from both assays was expressed as […]
(§3) P. falciparum (panel of resistant strains) in vitro assay. (Swiss TPH)
(§4) All Plasmodium strains were cultured according to Trager and Jensen and are described at www.beiresources.org (resistant strains: K1, W2, 7G8, TM90C2A, D6 and V1/S, sensitive strain:
(§5) NF54). EC50 values were determined in vitro by measuring incorporation of the nucleic acid precursor […]
(§6) Mammalian Cell Growth Inhibition assay
(§7) A counter-screen against normal diploid human fibroblasts (MRC-5 cell line) was carried out to exclude non-selective, and toxic compounds. The assay was essentially carried out as described previously.4 Cells were plated and incubated overnight to allow them to adhere as monolayers. A working stock of each test compound was transferred to an intermediate 384-well plate and pre-diluted with minimum essential media (MEM). The pre-diluted stocks were then transferred onto the cell monolayers, and the plates were incubated for 68 h. Resazurin, to a final concentration of 50 μM, was added to each well, after which plates were incubated for a further 3 h and measured for fluorescence (λex=528 nm, λem=590 nm)
(§8) In vitro Cell Assay Data Analysis.
(§9) All data was processed using IDBS ActivityBase® raw data was converted into per cent inhibition through linear regression by setting the high inhibition control as 100% and the no inhibition control as 0%. Quality control criteria for passing plates were as follows: Z’> 0.5, S:B> 3, %CV(no inhibition < 15 . The formula used to calculate Z’ is 1 3× (St D e v _ hi gh + St D e v _ low) . […]
(§10) All EC50 Curve fitting was undertaken using XLFit version 4.2 using Model 205 with the following 4 parametric equation: y = A + B A A + ($-&) ,where A=% inhibition at bottom, B=% […]
(§11) inhibition at top, C= EC50, D= slope, x= inhibitor concentration and y= % inhibition. […]
(§12) reach 100% of inhibition, B was fixed to 100 only when at least 50% of inhibition was reached.
(§13) Plasmodium falciparum late stage (IV-V) gametocyte high content imaging assay Plasmodium falciparum NF54-pfs16-LUC-GFP stage IV-V Gametocytes were produced as described previously.5 Compounds were solubilized in DMSO and serially diluted in three concentrations per log standard curves in DM SO. One µl of compound was subsequently diluted in 25µl of water (4% DMSO) and 5µl transferred into the base of 384 well PerkinElmer CellCarrier plates. Forty-five µl of stage IV-V gametocytes (10%P in 0.1%H) were added to the imaging plates which were in turn sealed with a gas permeable membrane and incubated at 37°C, 5% CO 2, 5% O2, 90% N2 and 60% humidity […]
(§14) Post incubation, 5µl of MitoTracker® Red CM -H2Xros (MTR) solution (0.66ug/ml) was added to all wells and the plates incubated for a further 16hours. […]

Pf (3D7) = assay: Ligand efficiency metrics (LE, LLE, LELP), selectivity and fold changes; set-up: species or system Plasmodium falciparum
[2] = Parallel artificial membrane permeability assay (PAMPA); format: in vitro ADME
[3] = Intrinsic clearance (Cli) in mouse liver microsomes; format: in vitro ADME; settings: mouse liver microsome
Text: as §11, §12, §13
(§15) Post incubation, 5µl of MitoTracker® Red CM -H2Xros (MTR) solution (0.66ug/ml) was added to all wells and the plates incubated for a further 16hours. The assay plates were then imaged and the number of viable gametocytes determined for test compounds plus 0.4%DMSO and 5µM Puromycin.
(§16) (0.4%DMSO) control values. Percent inhibition was plotted against log compound concentration using a 4 parameter log dose, non-linear regression analysis, with sigmoidal dose response (variable slope) curve fit using Prizm 4.0. IC50 values were obtained from this curve fit. The compound testing was performed in duplicate point within two separate experiments.
(§17) Plasmodium berghei ookinete development assay
(§18) Assay was performed as previously reported.6 Briefly blood containing P. berghei CTRPp-GFP gametocytes was rapidly harvested from infected mice and introduced to test compounds pre-diluted in ookinete medium (to induce gamete formation and support ookinete development) in 96-well plates. Plates were incubated in the dark at 21°C for 22 hr before GFP fluorescence intensity measured in a plate reader. % inhibition of ookinete formation was calculated with reference to the fluorescence intensity values of a positive control (20 µM cycloheximide) and a solvent-only negative control (DMSO). All assays were performed in triplicate independent experiments and EC50 values calculated in Graphpad Prism.
(§19) The aqueous solubility of the test compounds was measured using laser nephelometry, as described previously.7 Compounds were subject to serial dilution from 10 mg/mL to 0.5 mg/mL in DMSO. An aliquot was then mixed with MilliQ water to obtain an aqueous dilution plate with a final concentration range of 100 – 5 μg/mL, with a final DMSO concentration of 1.0%. Triplicate aliquots were transferred to a flat bottomed polystyrene plate which was immediately read on the NEPHELOstar (BMG Lab Technologies). The amount of laser scatter caused by insoluble particulates (relative nephelometry units, RNU) was plotted against compound concentration using a segmental regression fit, with the point of inflection being quoted as the compounds aqueous solubility (μg/mL; […]
(§20) Intrinsic Clearance (Cli) experiments
(§21) The procedure was carried out as reported previously.7 Test compound (0.5 µM) was incubated with female CD1 mouse, male sprague-dawley rat or pooled human mixed gender liver microsomes (Xenotech LLC TM; 0.5 mg/mL 50 mM potassium phosphate buffer, pH 7.4) and the reaction initiated […]
by the addition of excess NADPH (8 mg/mL 50 mM potassium phosphate buffer, pH 7.4).
Immediately, at time zero, then at 3, 6, 9, 15 and 30 min an aliquot (50 μL) of the incubation mixture was removed and mixed with acetonitrile (100 μL) to stop the reaction. Internal standard was added to all samples, the samples centrifuged to sediment precipitated protein and the plates then sealed prior to UPLC-MS/MS analysis using a Quattro Premier XE (Waters Corporation, USA).
XLfit (IDBS, UK) was used to calculate the exponential decay and consequently the rate constant (k) from the ratio of peak area of test compound to internal standard at each timepoint. The rate of […]

[4] = Experimental pKa by potentiometric titration; format: physicochemical; settings: value in parentheses, read-out: R^3 group pKa, experimental
Text: Table 4 SAR Study of the R^3 Substituent: Aromatic Groups | column: R^3 group pKa^a

P. berghei ANKA strain = assay: In vivo antimalarial efficacy in the P. berghei mouse model (Peter's test); set-up: species or system Plasmodium berghei in female NMRI mice; settings: for inhibition in vivo at 1 mg/kg: Plasmodium berghei, po, 96 h, 4 × 1 mg/kg oral, read-out: activity (reduction of parasitemia); for inhibition in vivo at 1 mg/kg / cure: once daily; for cure: mice cured / mice in group
Description: Compound 41 was dosed as a bolus solution intravenously at 1 mg free base/kg (dose volume: 5 mL/kg; dose vehicle: 5% DMSO;saline) or by gavage orally as solution at 3 mg free base/kg (dose volume: 10 mL/kg; Dose vehicle: 0.5% w/v hydroxypropylmethylcellulose with 0.4% v/v Tween 80 and 0.5% v/v benzyl alcohol) to male Sprague Dawley rats (n=3/dose route). Blood samples were taken from each rat at 5, 15, 30 min, 1, 2, 4, 6, 8, 24 and 30 h post-dose, mixed with two volumes of distilled water and stored frozen until UPLC/MS/MS analysis.
Pharmacokinetic parameters were derived from the blood concentration time curve for each compound using PKsolutions software v 2.0 (Summit Research Services, USA).
In vivo antimalarial efficacy studies in P. berghei. (Swiss TPH)
In vivo efficacy was conducted as previously described10 with the modification that female NMRI mice (n = 3) were infected with a GFP-transfected P. berghei ANKA strain (donated by A. P. Waters and C. J. Janse, Leiden University, The Netherlands), and parasitaemia determined (96 h after infection) using standard flow cytometry techniques. Compounds 1, 25, 27, 30 and 49 were prepared in 10% DM SO, 40% PEG 400 and 50% water prior to administration orally, once daily for 4 days.
Compounds 40, 41, 43 and 44 were prepared in a non-solubilizing, standard suspension vehicle called HPMC (0.5% [wt/vol] hydroxypropylmethylcellulose, 0.5% [vol/vol] benzyl alcohol, 0.4% [vol/vol] Tween 80, and 0.9% [wt/vol] sodium chloride in water) prior to administration orally, once daily for 4 days. Blood samples were collected on day 4 (96 h after infection) in two volumes water. Animals […]
and then hourly up to 4 h after dosing each day. The animals were selected randomly for each group

[5] = Intrinsic clearance (Cli) in rat liver microsomes; format: in vitro ADME; settings: rat liver microsome
Text: as §11, §12, §13, §15, §16, §17, §18, §19, §20, §21
(§22) by the addition of excess NADPH (8 mg/mL 50 mM potassium phosphate buffer, pH 7.4). […]

[6] = Intrinsic clearance (Cli) in human liver microsomes; format: in vitro ADME; settings: human liver microsome
Text: as §11, §12, §13, §15, §16, §17, §18, §19, §20, §21, §22

[7] = set-up: method as in PMID 26085270; settings: mouse liver microsome; cited from earlier work
[8] = set-up: method as in PMID 26085270; settings: rat liver microsome; cited from earlier work
[9] = set-up: method as in PMID 26085270; settings: human liver microsome; cited from earlier work
[10] = set-up: method as in PMID 26085270; settings: potentiometric titration, value in parentheses; cited from earlier work
[11] = set-up: method as in PMID 26085270; settings: pH 7.4; cited from earlier work
[12] = set-up: method as in PMID 26085270; settings: mouse plasma protein binding; cited from earlier work
[13] = set-up: method as in PMID 26085270; settings: mouse, iv dose 1 mg/kg; cited from earlier work
[14] = set-up: method as in PMID 26085270; settings: male Sprague Dawley rat, intravenous at 1 mg/kg; cited from earlier work
[15] = system: Plasmodium falciparum strain 3D7; assay: Plasmodium falciparum screening, SYBR green growth inhibition; format: cell-based; settings: 3D7, supplementary csv, read-out: Pf (3D7) EC50
Description: as §1, §2, §3, §4, §5, §6, §7, §8, §9, §10, §11, §12, §13, §14

[16] = Pf (3D7), relative to the comparator compound of the sentence

SMILES: Cc1ccc(-c2cc(C(=O)Nc3cccnc3)c3ccccc3n2)cc1 [Compound 12, N-(Pyridine-3-yl)-2-(p-tolyl)quinoline-4-carboxamide]
EC50 at 68 h [1]: > 50 µM | drop in potency (Pf (3D7); [16]): 8 fold

Papp at 5 h, 10 µM ([2]; pH 7.4, read-out: PAMPA Pe): 15.9 ×10⁻⁶ cm/s
SMILES: CC(C)NCC(O)COc1cccc2ccccc12 (centres unmarked) [propanolol, reference compound]

SMILES: O=C(NCCN1CCCC1)c1cc(-c2ccc(CN3CCOCC3)c(F)c2)nc2ccc(F)cc12 [Compound 40]
MLM Cli [3]: 1.0 mL min^–1 g^–1 | pKa [4]: 6.1 | inhibition in vivo at 1 mg/kg (P. berghei ANKA strain): > 99%

MLM Cli [3]: 2.0 mL min^–1 g^–1 | RLM Cli [5]: 0.6 mL min^–1 g^–1 | HLM Cli [6]: 2 mL min^–1 g^–1
SMILES: O=C(NCCN1CCCC1)c1cc(-c2ccc(CN3CCCC3=O)cc2)nc2ccc(F)cc12 [Compound 44]

SMILES: O=C(NCCN1CCCC1)c1cc(-c2ccc(CN3CCOCC3)cc2)nc2ccc(F)cc12 [Compound 2]
increase in permeability ([2]; relative to the earlier lead): more than 30 fold | cure (P. berghei ANKA strain; 4 × 3 mg/kg oral): 2/3 | cure (P. berghei ANKA strain; 4 × 10 mg/kg oral): 3/3 | cure (P. berghei ANKA strain; 4 × 30 mg/kg oral, 30 mg/kg): complete cure and 3/3 | ED90 (P. berghei ANKA strain; dosed orally for 4 days): 0.1 to 0.3 mg/kg | LLE (ligand-lipophilicity efficiency) (Pf (3D7)): 5.9 | improvement / increase in potency (Pf (3D7); [16]): 70 fold | MLM Cli [7]: <0.5 mL min^–1 g^–1 | RLM Cli [8]: ≤0.8 mL min^–1 g^–1 | HLM Cli [9]: ≤1.1 mL min^–1 g^–1 | R^3 group pKa, experimental [10]: 6.8 | PAMPA Pe [11]: 73 nm/s | PPB [12]: 63% | Clb [13]: 12 ^b mL min^–1 kg^–1 | Clb [14]: 18 mL min^–1 kg^–1

EC50 [15]: 1.7 nM
SMILES: O=C(NCCN1CCCC1)c1cc(NCCC2CCOCC2)nc2ccc(F)cc12 [Compound 29, 6-Fluoro-N-(2-(pyrrolidin-1-yl)ethyl)-2-((2-(tetrahydro-2H-pyran-4-yl)ethyl)amino)quinoline-4-carboxamide]
EC50 at 68 h [1]: > 50 µM

SMILES: O=C(NCCN1CCCC1)c1cc(-c2ccc(CN3CCS(=O)(=O)CC3)cc2)nc2ccc(F)cc12 [Compound 43]
MLM Cli [3]: <0.5 mL min^–1 g^–1 | RLM Cli [5]: 0.8 mL min^–1 g^–1 | inhibition in vivo at 1 mg/kg (P. berghei ANKA strain): > 99%
